# Results as given in patent US20260250412A1, “COMBINATION OF ANTIBODY-DRUG CONJUGATE AND ANTI-PD-1 ANTIBODY, AND USE THEREOF” (GENEQUANTUM HEALTHCARE (SUZHOU) CO., LTD., priority 2023, published 2026).
# Assays:
# [1] = test system: NCI-N87 mouse xenograft tumor; assay: In vivo efficacy, NCI-N87 mouse xenograft tumor; parameters: species or system BALB/c nude mice; settings: Table 14, BIW*6, 3 mg/kg
# [2] = test system: MDA-MB-468 mouse xenograft tumor; assay: In vivo efficacy, MDA-MB-468 mouse xenograft tumor; parameters: species or system BALB/c Nude mice; settings: 4.5 mg/kg, intravenously
# Protocol: The MDA-MB-468 tumor cells (ATCC, HTB-132) were maintained in vitro as a monolayer culture in L-15 medium supplemented with 10% fetal bovine serum and 1% Antibiotic-Antimycotic at 37° C. in an atmosphere of 0% CO2 in air. The cells growing in an exponential growth phase will be harvested and counted for tumor inoculation. For in vivo anti-tumor efficacy study, 10×10^6 MDA-MB-468 human breast cancer cells (Trop2 positive) in 0.2 mL of PBS with Matrigel (1:1) were inoculated subcutaneously in the right flank in BALB/c Nude mice. […] The tumor volume was measured twice weekly with a caliper. T/C and TGI values were calculated using tumor volume.
# [3] = test system: human breast cancer BR-05-0028 model; assay: In vivo efficacy, human breast cancer BR-05-0028 mouse xenograft tumor; parameters: species or system BALB/c nude mice
# Protocol: II. The tumor diameter was measured with a vernier caliper and the tumor volume was calculated according to the formula V=0.5a×b^2 (where a is the longest diameter of the tumor and b is the shortest diameter of the tumor). […] Animals in each group were administered by tail vein injection, and the control group was given an equal volume of vehicle. […] T/C and TGI values were calculated using tumor volume. The calculation formula is as follows: T/C %=TRTV/CRTV×100% (TRTV: RTV of the treatment group; CRTV: RTV of the vehicle control group). The relative tumor volume (RTV) was calculated based on the results of tumor measurement, and the calculation formula was RTV=Vt/V0, where V0 was the average tumor volume measured at the time of grouping (i.e., D0), Vt was the average tumor volume at one measurement, and TRTV and CRTV took the same day of data.
# The human breast cancer BR-05-0028 model (IHC 3±) was derived from tumor samples resected in clinical surgery. The tumor samples were inoculated into nude mice at the P0 generation, and the tumor tissue used in this example was the P5 generation. Tumor tissue with a volume of about 30 mm^3 was subcutaneously inoculated into the right back dorsum of SPF female BALB/c nude mice aged 6-8 weeks.
# [4] = Table 15, BIW*6, 5 mg/kg, Day 21
substance,measurement,setting,value
Trodelvy,Tumor volume (mm^3) Day 32,[1],864 ± 114 mm^3
same,T/C (%),[1]; Day 32,65.85%
same,TGI (%),[1]; Day 32,41.10%
same,Tumor volume (mm^3) Day 0,[1]; baseline at grouping,227 ± 21 mm^3
same,Tumor volume (mm^3) on day 35,[2],535 ± 60 mm^3
same,T/C (%),[2]; day 35,78.73%
same,TGI (%),[2]; day 35,29.24%
same,Tumor volume (mm^3) Day 21,"[3]; Table 15, BIW*6, 5 mg/kg",5 ± 2 mm^3
same,T/C (%),[3]; [4],0.35%
same,TGI (%),[3]; [4],111.76%
same,Tumor volume (mm^3) Day 0,"[3]; Table 15, BIW*6, 5 mg/kg, baseline at grouping",171 ± 29 mm^3
same,tumor growth inhibition (in words),"[3]; effect example 3.1.3, 5 mg/kg (ADC-1 also 10 mg/kg), after 21 days",able to significantly inhibit tumor growth
